How the values were obtained:
IRAK4 [1] = target: T1, IRAK4 (Homo sapiens, UniProt Q9NWZ3); experiment: PBMC degradation assay (western blot, % IRAK4 degraded after 4 hours); assay type: cell-based; settings: human PBMCs
T1 sequence (Q9NWZ3 1-460): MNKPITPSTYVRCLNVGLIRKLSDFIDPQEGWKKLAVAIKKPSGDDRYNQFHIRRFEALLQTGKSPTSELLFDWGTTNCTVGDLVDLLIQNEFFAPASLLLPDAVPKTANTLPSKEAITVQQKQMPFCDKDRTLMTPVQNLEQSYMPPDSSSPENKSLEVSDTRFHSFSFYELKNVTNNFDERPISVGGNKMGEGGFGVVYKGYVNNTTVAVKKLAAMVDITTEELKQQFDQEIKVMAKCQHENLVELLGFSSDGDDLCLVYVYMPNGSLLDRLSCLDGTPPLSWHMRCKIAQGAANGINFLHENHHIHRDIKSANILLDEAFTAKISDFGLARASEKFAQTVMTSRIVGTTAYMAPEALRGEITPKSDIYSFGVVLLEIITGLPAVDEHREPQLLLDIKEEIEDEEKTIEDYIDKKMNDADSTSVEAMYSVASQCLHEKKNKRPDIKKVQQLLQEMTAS

IRAK4 [2] = target: T1, IRAK4; experiment: OCI-LY-10 degradation assay (western blot, % IRAK4 degraded after 4 hours); assay type: cell-based; set-up: endogenous in cells; host or cells: OCI-LY10; settings: OCI-LY10 cells
Procedure, shortened: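 IRAK4 loss after 4 h at 37° C was scored A (>50%), B (>20-50%) or C (<20%) from infrared western blots of RIPA lysates, 20-25 μg protein per lane. Compound was applied at 0.003-10 μM final to OCI-LY10 cells cultured in RPMI-1640 with 20% FBS and 55 μM 2-ME.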

PBMC % IRAK4 Degradation (IRAK4 [1]) | OCI-LY10 % IRAK4 Degradation (0.01 uM) (IRAK4 [2]; 4 hours, 0.01 uM compound) | OCI-LY10 % IRAK4 Degradation (0.1 uM) (IRAK4 [2]; 4 hours, 0.1 uM compound) | OCI-LY10 % IRAK4 Degradation (1 uM) (IRAK4 [2]; 4 hours, 1 uM compound) | OCI-LY10 % IRAK4 Degradation (IRAK4 [2]; IRAK4 degraded after 4 hours, western blot) | Structure (SMILES)
A (>50% degradation) |  |  |  |  | NC(=O)c1nn(-c2ccc(C(=O)NCCOCCOCCNc3cccc4c3C(=O)N(C3CCC(=O)NC3=O)C4=O)cc2)cc1NC(=O)c1coc(-c2ccnc(NCC(F)(F)F)c2)n1 (stereo not drawn) [I-127, N-[3-carbamoyl-1-[4-[2-[2-[2-[[2-(2,6-dioxo-3-piperidyl)-1,3-dioxo-isoindolin-4-yl]amino]ethoxy]ethoxy]ethylcarbamoyl]phenyl]pyrazol-4-yl]-2-[2-(2,2,2-trifluoroethylamino)-4-pyridyl]oxazole-4-carboxamide]
A (>50% degradation) |  |  |  |  | NC(=O)c1nn(-c2ccc(C(=O)NCCCCCNCCNc3cccc4c3C(=O)N(C3CCC(=O)NC3=O)C4=O)cc2)cc1NC(=O)c1coc(-c2ccnc(NCC(F)(F)F)c2)n1 (stereo not drawn) [I-172, N-[3-carbamoyl-1-[4-[5-[2-[[2-(2,6-dioxo-3-piperidyl)-1,3-dioxo-isoindolin-4-yl]amino]ethylamino]pentylcarbamoyl]phenyl]pyrazol-4-yl]-2-[2-(2,2,2-trifluoroethylamino)-4-pyridyl]oxazole-4-carboxamide]
 | C (<20% degradation) | B (>20-50% degradation) | A (>50% degradation) | A (>50% degradation) | O=C1CCC(N2C(=O)c3cccc(NCCOCCOCCNCc4ccc(-n5cc(NC(=O)c6coc(-c7ccnc(NCC8CC8)c7)n6)c(C(F)F)n5)cc4)c3C2=O)C(=O)N1 (stereo not drawn) [I-210, 2-[2-(Cyclopropylmethylamino)-4-pyridyl]-N-[3-(difluoromethyl)-1-[4-[[2-[2-[2-[[2-(2,6-dioxo-3-piperidyl)-1,3-dioxoisoindolin-4-yl]amino]ethoxy]ethoxy]ethylamino]methyl]phenyl]pyrazol-4-yl]oxazole-4-carboxamide]

Source: US10874743B2, “IRAK degraders and uses thereof” (Kymera Therapeutics, Inc., priority 2017, dated 2020)
